Results published in US4427659A, “Muramyl peptide substituted on a peptide nitrogen and medicaments containing the same” (Agence Nationale de Valorisation de la Recherche (ANVAR), priority 1979, dated 1984).

Experiments:
[1] = test system: bovine serum albumin (BSA); assay: Adjuvant character in the aqueous phase: anti-body level by passive hemagglutination after BSA with the substance; type: in vivo; conditions: Swiss mice, SC; for Log2 hemagglutinating titer, Secondary response D 36: 0.5 mg BSA with 0.1 mg substance, booster 0.1 mg BSA thirty days later, six days after booster; for Log2 hemagglutinating titer, Primary response D 28: 0.5 mg BSA with 0.1 mg substance in isotonic saline, before booster
Procedure: Groups of 8 Swiss mice aged two months receive, by sub-cutaneous injection (SC), 0.5 mg of antigen constituted by bovine serum albumin (BSA) with (0.1 mg) or without the substance under test in an isotonic saline solution. This high dose of antigen, because it is situated at the limit of the paralysing dose with respect to the immune response, results, through this fact, in a weak or nul response to the antigen alone in the controls; it constitutes therefore a severe criterion to establish the activity of an adjuvant substance. Thirty days later, the mice receive, by the same route of administration, a booster containing 0.1 mg of the same antigen.
The anti-body level is determined, before and six days after the booster, by passive hemagglutination using sheep's red blood cells treated with formalin and covered with the antigen under study according to the method described by A. A. HIRATA and M. W. BRANDISS (J. Immunol., 100, 641-648, 1968).
The anty-body titer, represented by the maximum serum dilution agglutinating a given amount of sheep's red blood cells reaches a maximum at the 36th day following the first injection and is estblished in the following manner.

[2] = test system: rabbit; conditions: in vivo
From the text: In addition, the eventuality of a pyrogenic effect in the rabbit was sought, by following the protocol of the European Pharmacopoea, Vol. 2, 1971, pages 58-60.

[3] = test system: Ovalbumin; assay: Adjuvant character in emulsion (FIA): delayed hypersensitivity and specific anti-bodies to ovalbumin; type: in vivo, Hartley males; conditions: 100 μg where printed, no dose given for the methyl ester; for φ mm induration after 48 h: delayed hypersensitivity to 0.025 mg ovalbumin intradermal, 18 days after immunisation with 1 mg ovalbumin in FIA emulsion; for antibodies Log2 μg/ml: serum 21 days after injection, nitrogen precipitatable by ovalbumin, 1 mg ovalbumin in FIA emulsion
Procedure: The tests were carried out on batches of 6 Hartley males of 350 g. The administration was done by intradermal injection into the plantar pad of each of the rear paws. Ovalbumin (constituting the antigen) in the proportion of 1 mg is prepared in 0.1 ml of an emulsion of saline isotonic solution, in an oily phase constituted by the Freund incomplete adjuvant (FIA).
Eighteen days after this immunisation, possible delayed hypersensitivity reactions (HSR) to the antigen were sought by injecting by the intradermal route 0.025 mg of ovalbumin in the side of the animals, […] The diameter in millimiters of the reaction so-caused was measured.
Twenty one days after the injection, the animals were bled. In the serum collected, the contents of specific anti-bodies of the ovalbumin was measured by precipitation of the antibody-antigen complex in the equivalent zone. The amount of protein nitrogen contained in this precipitate was devaluated by the Folin method. The mean values of the contents of antibodies are indicated in the Table of results by the logarithm to base 2. These values express the amount, in micrograms of nitrogen precipitatable by the antigen, per millimiter of serum.

Compound | Log2 hemagglutinating titer, Secondary response D 36 [1] | pyrogenic character [2] | φ mm induration after 48 h [3] [mm] | antibodies Log2 μg/ml [3] [Log2 μg/ml] | Log2 hemagglutinating titer, Primary response D 28 [1]
N-acetyl-muramyl-N-methyl-L-alanyl-D-glutamine-methyl-ester [MDP-(N--methyl-Ala)--OCH3] | 5.11 | absence of a pyrogenic character | 5 ± 2 | 10.11 ± 0.6 | 
N-acetyl-muramyl-N-methyl-L-alanyl-D-isoglutamine [MDP-(N--methyl-Ala)] | 9.27 ± 1.19 | absence of a pyrogenic character | 14 ± 0.8 | 12.51 ± 0.88 | 4.64
CC(=O)N[C@@H]1[C@@H](O[C@H](C)C(=O)N[C@@H](C)C(=O)N[C@H](CCC(=O)O)C(N)=O)[C@H](O)[C@@H](CO)O[C@H]1O [MDP, reference compound] | 8.34 ± 1.34 |  | 11.5 ± 2.5 | 12.31 ± 1.01 | 3.64
